Measured values reported in US9611262B2, “Substituted 2-azabicycles and their use as orexin receptor modulators” (JANSSEN PHARMACEUTICA NV, priority 2014, dated 2017).

What was measured:
rat orexin 1 receptor = rat orexin 1 receptor (Rattus norvegicus, UniProt P56718); test: Rat orexin 1 receptor radioligand binding (competitive); conditions: HEK293 cells stably expressing rat orexin 1 receptor; 4 nM radioligand; averages of 2-20 runs; read-out: rOX1 Ki
Outline: (§1)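 Competition binding used HEK293 cells expressing rat OX1 or CHO cells expressing human OX1, with 4 nM final [3H]-labelled thiazolyl-oxadiazolyl-pyrrolidinyl methanone radioligand in PBS. Compounds were tested at 7 concentrations (0.1 nM–10 μM) for 60 min at room temperature, then filtered; 10 μM almorexant defined nonspecific binding. Ki was derived from the one-site IC50 and the radioligand Kd.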

human orexin 1 receptor = human orexin 1 receptor (Homo sapiens (Human), UniProt O43613); test: Human orexin 1 receptor radioligand binding (competitive); conditions: CHO cells stably expressing human orexin 1 receptor; 4 nM radioligand; averages of 2-20 runs; read-out: hOX1 Ki
Outline: as §1

human orexin 2 receptor = human orexin 2 receptor (Homo sapiens (Human), UniProt O43614); test: Human orexin 2 receptor radioligand binding ([3H]-EMPA competition); conditions: HEK293 stably expressing human orexin 2 receptor; 2 nM [3H]-EMPA; averages of 2-20 runs; read-out: hOX2 Ki
Outline: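 Membranes-free whole HEK293 cells stably expressing human OX2 receptor incubated with [3H]-EMPA and compound (7 concentrations, 0.1 nM–10 μM, ≤0.1% DMSO) for 60 min at room temperature; nonspecific binding with 10 μM almorexant. Filtration and scintillation counting; one-site IC50 converted to Ki using predetermined Kd, triplicates averaged over 2-20 runs.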

Chain of human orexin 1 receptor (O43613 whole entry): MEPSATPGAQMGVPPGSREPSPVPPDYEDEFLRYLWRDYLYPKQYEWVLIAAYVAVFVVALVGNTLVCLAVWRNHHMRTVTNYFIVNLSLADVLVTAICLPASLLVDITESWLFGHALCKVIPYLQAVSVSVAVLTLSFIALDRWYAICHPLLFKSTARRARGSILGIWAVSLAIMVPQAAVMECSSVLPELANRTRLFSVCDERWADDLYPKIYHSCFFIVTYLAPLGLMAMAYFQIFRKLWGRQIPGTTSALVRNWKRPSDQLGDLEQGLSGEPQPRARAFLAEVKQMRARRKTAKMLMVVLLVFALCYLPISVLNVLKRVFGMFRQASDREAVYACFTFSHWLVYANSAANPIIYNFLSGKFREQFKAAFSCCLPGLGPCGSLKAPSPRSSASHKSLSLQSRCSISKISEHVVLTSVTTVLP
Chain of human orexin 2 receptor (O43614 whole entry): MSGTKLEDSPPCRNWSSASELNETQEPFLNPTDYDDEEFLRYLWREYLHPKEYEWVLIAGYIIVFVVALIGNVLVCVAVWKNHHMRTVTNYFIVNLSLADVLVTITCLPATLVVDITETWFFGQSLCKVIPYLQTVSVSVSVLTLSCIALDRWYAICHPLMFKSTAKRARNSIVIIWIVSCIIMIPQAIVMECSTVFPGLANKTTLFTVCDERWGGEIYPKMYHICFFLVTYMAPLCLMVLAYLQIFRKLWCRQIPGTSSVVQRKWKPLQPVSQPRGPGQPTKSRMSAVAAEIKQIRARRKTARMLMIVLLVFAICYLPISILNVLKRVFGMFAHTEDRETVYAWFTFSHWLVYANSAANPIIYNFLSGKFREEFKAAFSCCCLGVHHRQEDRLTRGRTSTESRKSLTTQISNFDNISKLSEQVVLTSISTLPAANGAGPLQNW

Ki (rat orexin 1 receptor) | Ki (human orexin 1 receptor) | Ki (human orexin 2 receptor) | Structure (SMILES)
100 nM | 55 nM | 3800 nM | CC(C)CC1C2CC(Oc3ccc(C(F)(F)F)cn3)C(C2)N1C(=O)c1ccccc1-c1ncc(F)cn1 (racemic) [Example 212, (R/S)-[2-(5-fluoropyrimidin-2-yl)phenyl]-[2-isobutyl-5-[[5-(trifluoromethyl)-2-pyridyl]oxy]-3-azabicyclo[2.2.1]heptan-3-yl]methanone]
6 nM | 8 nM | 1900 nM | C[C@@H]1[C@H]2C[C@@H](Oc3ccc(C(F)(F)F)cn3)[C@H](C2)N1C(=O)c1ncccc1-c1ncccn1 (relative stereo) [Example 32, ((1S*,3R*,4R*,6R*)-3-methyl-6-((5-(trifluoromethyl)pyridin-2-yl)oxy)-2-azabicyclo[2.2.1]heptan-2-yl)(3-(pyrimidin-2-yl)pyridin-2-yl)methanone]
5 nM | 5 nM | 556 nM | [2H]C1([2H])[C@H]2C[C@@H]([C@@H]1Oc1ccc(C(F)(F)F)cn1)N(C(=O)c1cccc(F)c1-n1nccn1)[C@@H]2C [Example 199, [(1R,3R,4S,6R)-2,2-dideuterio-6-methyl-3-[[5-(trifluoromethyl)-2-pyridyl]oxy]-5-azabicyclo[2.2.1]heptan-5-yl]-[3-fluoro-2-(triazol-2-yl)phenyl]methanone]
12 nM | 14 nM | 2400 nM | C[C@@H]1[C@@H]2CC[C@@H]([C@H](Oc3ccc(C(F)(F)F)cn3)C2)N1C(=O)c1cccc(F)c1-c1ncccn1 [Example 148, (3-fluoro-2-pyrimidin-2-yl-phenyl)-[(1R,2R,4S,5R)-2-methyl-5-[[5-(trifluoromethyl)-2-pyridyl]oxy]-3-azabicyclo[2.2.2]octan-3-yl]methanone]
18 nM | 12 nM | 125 nM | Cc1ccc(-n2nccn2)c(C(=O)N2[C@H](C)[C@H]3C[C@@H](Oc4cnc5cc(F)ccc5n4)[C@@H]2C3)n1 (relative stereo) [Example 186, ((1S*,3R*,4R*,6R*)-6-((6-fluoroquinoxalin-2-yl)oxy)-3-methyl-2-azabicyclo[2.2.1]heptan-2-yl)(6-methyl-3-(2H-1,2,3-triazol-2-yl)pyridin-2-yl)methanone]
15 nM | 10 nM | > 10000 nM | COc1ccc(C(=O)N2[C@H](C)[C@H]3C[C@@H](Oc4cnc(C(F)(F)F)cn4)[C@@H]2C3)c(-n2nccn2)c1 (relative stereo) [Example 57, (4-methoxy-2-(2H-1,2,3-triazol-2-yl)phenyl)((1S*,3R*,4R*,6R*)-3-methyl-6-((5-(trifluoromethyl)pyrazin-2-yl)oxy)-2-azabicyclo[2.2.1]heptan-2-yl)methanone]
216 nM | 283 nM | 4900 nM | C[C@@H]1[C@H]2C[C@@H](Oc3ccc(C(F)(F)F)nc3)[C@H](C2)N1C(=O)c1cccc(F)c1-n1nccn1 (relative stereo) [Example 38, (3-fluoro-2-(2H-1,2,3-triazol-2-yl)phenyl)((1S*,3R*,4R*,6R*)-3-methyl-6-((6-(trifluoromethyl)pyridin-3-yl)oxy)-2-azabicyclo[2.2.1]heptan-2-yl)methanone]
5 nM | 5 nM | 2900 nM | Cc1cnc(-n2nccn2)c(C(=O)N2[C@H](C)[C@H]3C[C@@H](Oc4ccc(Cl)cn4)[C@@H]2C3)c1 [Example 194, [(1R,2R,4S,5R)-5-[(5-chloro-2-pyridyl)oxy]-2-methyl-3-azabicyclo[2.2.1]heptan-3-yl]-[5-methyl-2-(triazol-2-yl)-3-pyridyl]methanone]
49 nM | 46 nM | > 10000 nM | O=C(c1cccc(F)c1-c1ncccn1)N1[C@H](CF)[C@@H]2CC[C@H]1[C@H](Oc1ccc(C(F)(F)F)cn1)C2 [Example 79, (3-fluoro-2-(pyrimidin-2-yl)phenyl)((1S,3S,4R,6R)-3-(fluoromethyl)-6-((5-(trifluoromethyl)pyridin-2-yl)oxy)-2-azabicyclo[2.2.2]octan-2-yl)methanone]
6 nM | 7 nM | 107 nM | C[C@@H]1[C@H]2C[C@@H](Oc3cnc4cc(F)ccc4n3)[C@H](C2)N1C(=O)c1ccccc1-n1nccn1 (relative stereo) [Example 188, (2-(2H-1,2,3-triazol-2-yl)phenyl)((1S*,3R*,4R*,6R*)-6-((6-fluoroquinoxalin-2-yl)oxy)-3-methyl-2-azabicyclo[2.2.1]heptan-2-yl)methanone]
4 nM | 3 nM | 481 nM | [2H]C1([2H])[C@H]2C[C@@H]([C@@H]1Oc1ccc(Cl)cn1)N(C(=O)c1cccc(F)c1-n1nccn1)[C@@H]2C [Example 197, [(1R,3R,4S,6R)-3-[(5-chloro-2-pyridyl)oxy]-2,2-dideuterio-6-methyl-5-azabicyclo[2.2.1]heptan-5-yl]-[3-fluoro-2-(triazol-2-yl)phenyl]methanone]
24 nM | 84 nM | 5200 nM | CC1C2CC(Oc3ccc(C(F)(F)F)cn3)C(C2)N1C(=O)c1cccc(F)c1-c1ncccn1 (single isomer, unassigned) [Example 1, (R/S)-(3-fluoro-2-(pyrimidin-2-yl)phenyl)(3-methyl-6-((5-(trifluoromethyl)pyridin-2-yl)oxy)-2-azabicyclo[2.2.1]heptan-2-yl)methanone]
7 nM | 6 nM | 136 nM | C[C@@H]1[C@H]2C[C@@H](Oc3cnc4cc(F)ccc4n3)[C@H](C2)N1C(=O)c1cccc(F)c1-n1nccn1 (relative stereo) [Example 187, (3-fluoro-2-(2H-1,2,3-triazol-2-yl)phenyl)((1S*,3R*,4R*,6R*)-6-((6-fluoroquinoxalin-2-yl)oxy)-3-methyl-2-azabicyclo[2.2.1]heptan-2-yl)methanone]
13 nM | 20 nM | 4780 nM | Cc1ccc(-n2nccn2)c(C(=O)N2[C@H](CF)[C@@H]3CC[C@H]2[C@H](Oc2ccc(C(F)(F)F)cn2)C3)n1 [Example 77, ((1S,3S,4R,6R)-3-(fluoromethyl)-6-((5-(trifluoromethyl)pyridin-2-yl)oxy)-2-azabicyclo[2.2.2]octan-2-yl)(6-methyl-3-(2H-1,2,3-triazol-2-yl)pyridin-2-yl)methanone]
3 nM | 4 nM | 78 nM | Cc1ccc(-n2nccn2)c(C(=O)N2[C@H](C)[C@H]3C[C@@H](Nc4ccc(C(F)(F)F)cn4)[C@@H]2C3)n1 (relative stereo) [Example 63, (6-methyl-3-(2H-1,2,3-triazol-2-yl)pyridin-2-yl)((1S*,3R*,4S*,6R*)-3-methyl-6-((5-(trifluoromethyl)pyridin-2-yl)amino)-2-azabicyclo[2.2.1]heptan-2-yl)methanone]
26 nM | 18 nM | 3400 nM | C[C@@H]1[C@H]2C[C@@H](Oc3cnc(C(F)(F)F)cn3)[C@H](C2)N1C(=O)c1cc(F)ccc1-n1nccn1 (relative stereo) [Example 54, (5-fluoro-2-(2H-1,2,3-triazol-2-yl)phenyl)((1S*,3R*,4R*,6R*)-3-methyl-6-((5-(trifluoromethyl)pyrazin-2-yl)oxy)-2-azabicyclo[2.2.1]heptan-2-yl)methanone]
68 nM | 151 nM | > 10000 nM | C[C@@H]1[C@H]2C[C@@H](Oc3cnc(C(F)(F)F)cn3)[C@H](C2)N1C(=O)c1ncccc1-n1nccn1 (relative stereo) [Example 47, (3-(2H-1,2,3-triazol-2-yl)pyridin-2-yl)((1S*,3R*,4R*,6R*)-3-methyl-6-((5-(trifluoromethyl)pyrazin-2-yl)oxy)-2-azabicyclo[2.2.1]heptan-2-yl)methanone]
